According to ChEMBL document CHEMBL4699517 (Bioorg Med Chem Lett, 2020):
The source made the active and inactive calls. The calls are words filed in the database; no cut-off is given here.

Assays:
Format in all cases: cell-based
[1] = biological target: Phosphatidylinositol 4,5-bisphosphate 3-kinase catalytic subunit gamma isoform (Homo sapiens) (UniProt P48736); assay: Inhibition of PI3Kgamma in human Raji cells assessed as inhibition of cell viability at 100 nM after 72 hrs by CellTiter-Glo luminescence assay
Chain of Phosphatidylinositol 4,5-bisphosphate 3-kinase catalytic subunit gamma isoform (Homo sapiens) (P48736 whole entry, looked up, canonical isoform): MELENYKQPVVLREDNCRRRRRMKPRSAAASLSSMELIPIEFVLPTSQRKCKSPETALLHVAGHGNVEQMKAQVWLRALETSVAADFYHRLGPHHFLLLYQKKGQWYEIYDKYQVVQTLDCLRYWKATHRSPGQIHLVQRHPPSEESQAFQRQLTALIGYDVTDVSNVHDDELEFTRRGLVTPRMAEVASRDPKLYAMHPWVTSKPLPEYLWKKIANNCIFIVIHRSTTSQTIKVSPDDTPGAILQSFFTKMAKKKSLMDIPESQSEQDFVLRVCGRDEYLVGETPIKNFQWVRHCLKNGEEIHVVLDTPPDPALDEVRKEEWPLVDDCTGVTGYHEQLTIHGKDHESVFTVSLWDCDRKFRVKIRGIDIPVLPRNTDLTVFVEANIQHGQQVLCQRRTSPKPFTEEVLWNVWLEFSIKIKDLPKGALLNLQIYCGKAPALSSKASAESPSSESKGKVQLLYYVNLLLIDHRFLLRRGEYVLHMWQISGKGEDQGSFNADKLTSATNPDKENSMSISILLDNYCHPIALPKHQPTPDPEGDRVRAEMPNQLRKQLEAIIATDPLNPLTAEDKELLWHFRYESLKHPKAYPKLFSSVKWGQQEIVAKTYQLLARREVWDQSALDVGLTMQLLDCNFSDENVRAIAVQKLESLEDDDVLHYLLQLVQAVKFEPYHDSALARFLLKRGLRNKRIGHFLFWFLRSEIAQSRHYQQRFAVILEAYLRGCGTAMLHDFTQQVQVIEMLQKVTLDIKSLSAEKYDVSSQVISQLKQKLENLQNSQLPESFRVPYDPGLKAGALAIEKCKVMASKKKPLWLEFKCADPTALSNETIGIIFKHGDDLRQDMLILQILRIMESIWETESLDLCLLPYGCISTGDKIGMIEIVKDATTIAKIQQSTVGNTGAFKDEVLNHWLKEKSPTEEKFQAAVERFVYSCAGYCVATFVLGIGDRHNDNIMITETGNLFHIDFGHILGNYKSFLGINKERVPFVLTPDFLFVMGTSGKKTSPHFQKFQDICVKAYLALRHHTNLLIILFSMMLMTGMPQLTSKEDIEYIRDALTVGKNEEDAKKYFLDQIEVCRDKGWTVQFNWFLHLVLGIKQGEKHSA

[2] = biological target: Phosphatidylinositol 4,5-bisphosphate 3-kinase catalytic subunit gamma isoform (Homo sapiens) (UniProt P48736); assay: Inhibition of PI3Kgamma in human RPMI-8226 cells assessed as inhibition of cell viability at 100 nM after 72 hrs by CellTiter-Glo luminescent assay
[3] = biological target: Phosphatidylinositol 4,5-bisphosphate 3-kinase catalytic subunit gamma isoform (Homo sapiens) (UniProt P48736); assay: Inhibition of PI3Kgamma in human MOLT-4 cells assessed as inhibition of cell viability at 100 nM after 72 hrs by CellTiter-Glo luminescent assay
[4] = biological target: Phosphatidylinositol 4,5-bisphosphate 3-kinase catalytic subunit gamma isoform (Homo sapiens) (UniProt P48736); assay: Inhibition of PI3Kgamma in human SUDHL-10 cells assessed as inhibition of cell viability at 100 nM after 72 hrs by CellTiter-Glo luminescent assay; conditions: SU-DHL-10
[5] = biological target: Phosphatidylinositol 4,5-bisphosphate 3-kinase catalytic subunit gamma isoform (Homo sapiens) (UniProt P48736); assay: Inhibition of PI3Kgamma in human LCL-1 cells assessed as inhibition of cell viability at 100 nM after 72 hrs by CellTiter-Glo luminescent assay
[6] = biological target: Phosphatidylinositol 4,5-bisphosphate 3-kinase catalytic subunit gamma isoform (Homo sapiens) (UniProt P48736); assay: Inhibition of PI3Kgamma in human SUDHL-6 cells assessed as inhibition of cell viability at 100 nM after 72 hrs by CellTiter-Glo luminescent assay; conditions: SU-DHL-6

Compound	inhibition [1]	inhibition [2]	inhibition [3]	inhibition [4]	inhibition [5]	inhibition [6]
COC(=O)[C@@]12OC[C@]34[C@H]([C@@H](O)[C@@H]1O)[C@@]1(C)CC(=O)C(OC(=O)[C@H](C)N)=C(C)[C@@H]1C[C@H]3OC(=O)[C@H](OC(=O)C=C(C)C)[C@@H]24	Active					
COC(=O)[C@@]12OC[C@]34[C@H]([C@@H](O)[C@@H]1O)[C@@]1(C)CC(=O)C(OC(=O)[C@H]5CCCN5)=C(C)[C@@H]1C[C@H]3OC(=O)[C@H](OC(=O)C=C(C)C)[C@@H]24	Active	Active	Active	Active	Active	Active
COC(=O)[C@@]12OC[C@]34[C@H]([C@@H](O)[C@@H]1O)[C@@]1(C)CC(=O)C(OCC(=O)C5CC5)=C(C)[C@@H]1C[C@H]3OC(=O)[C@H](OC(=O)C=C(C)C)[C@@H]24	inactive					
COC(=O)[C@@]12OC[C@]34[C@H]([C@@H](O)[C@@H]1O)[C@@]1(C)CC(=O)C(OC(=O)C[C@H](C)NS(C)(=O)=O)=C(C)[C@@H]1C[C@H]3OC(=O)[C@H](OC(=O)C=C(C)C)[C@@H]24	inactive					
CC[C@H](C)[C@H](N)C(=O)OC1=C(C)[C@@H]2C[C@H]3OC(=O)[C@H](OC(=O)C=C(C)C)[C@H]4[C@]5(C(=O)OC)OC[C@]34[C@H]([C@@H](O)[C@@H]5O)[C@@]2(C)CC1=O	Active					
COC(=O)[C@@]12OC[C@]34[C@H]([C@@H](O)[C@@H]1O)[C@@]1(C)CC(=O)C(OC(=O)C[C@H](C)NC(=O)OC(C)(C)C)=C(C)[C@@H]1C[C@H]3OC(=O)[C@H](OC(=O)C=C(C)C)[C@@H]24	inactive					
COC(=O)[C@@]12OC[C@]34[C@H]([C@@H](O)[C@@H]1O)[C@@]1(C)CC(=O)C(OC(=O)CNC(=O)CNC(=O)CN)=C(C)[C@@H]1C[C@H]3OC(=O)[C@H](OC(=O)C=C(C)C)[C@@H]24	Active	Active	Active	Active	Active	Active
COC(=O)[C@@]12OC[C@]34[C@H]([C@@H](O)[C@@H]1O)[C@@]1(C)CC(=O)C(OCC(N)=O)=C(C)[C@@H]1C[C@H]3OC(=O)[C@H](OC(=O)C=C(C)C)[C@@H]24	inactive					
COC(=O)[C@@]12OC[C@]34[C@H]([C@@H](O)[C@@H]1O)[C@@]1(C)CC(=O)C(OCC(=O)NC(Cc5ccccc5)C(=O)OC(C)(C)C)=C(C)[C@@H]1C[C@H]3OC(=O)[C@H](OC(=O)C=C(C)C)[C@@H]24 (some centres undefined)	inactive					
COC(=O)[C@@]12OC[C@]34[C@H]([C@@H](O)[C@@H]1O)[C@@]1(C)CC(=O)C(OC(=O)[C@@H]5CCCN5C(=O)OC(C)(C)C)=C(C)[C@@H]1C[C@H]3OC(=O)[C@H](OC(=O)C=C(C)C)[C@@H]24	Active					
COC(=O)[C@@]12OC[C@]34[C@H]([C@@H](O)[C@@H]1O)[C@@]1(C)CC(=O)C(OCC(=O)C(C)(C)C)=C(C)[C@@H]1C[C@H]3OC(=O)[C@H](OC(=O)C=C(C)C)[C@@H]24	inactive					
COC(=O)[C@@]12OC[C@]34[C@H]([C@@H](O)[C@@H]1O)[C@@]1(C)CC(=O)C(OC(=O)[C@H](CC(C)C)NC(=O)OC(C)(C)C)=C(C)[C@@H]1C[C@H]3OC(=O)[C@H](OC(=O)C=C(C)C)[C@@H]24	inactive					
COC(=O)[C@@]12OC[C@]34[C@H]([C@@H](O)[C@@H]1O)[C@@]1(C)CC(=O)C(OCC(=O)NCCN)=C(C)[C@@H]1C[C@H]3OC(=O)[C@H](OC(=O)C=C(C)C)[C@@H]24	Active	Active	Active	Active	Active	Active
COC(=O)[C@@]12OC[C@]34[C@H]([C@@H](O)[C@@H]1O)[C@@]1(C)CC(=O)C(OC(=O)C[C@H](C)NC(C)=O)=C(C)[C@@H]1C[C@H]3OC(=O)[C@H](OC(=O)C=C(C)C)[C@@H]24	Active	Active	Active	Active	Active	Active
COC(=O)[C@@]12OC[C@]34[C@H]([C@@H](O)[C@@H]1O)[C@@]1(C)CC(=O)C(OC(=O)[C@@H](NC(=O)OC(C)(C)C)C(C)C)=C(C)[C@@H]1C[C@H]3OC(=O)[C@H](OC(=O)C=C(C)C)[C@@H]24	inactive					
COC(=O)[C@@]12OC[C@]34[C@H]([C@@H](O)[C@@H]1O)[C@@]1(C)CC(=O)C(OC(=O)C[C@@H](C)N)=C(C)[C@@H]1C[C@H]3OC(=O)[C@H](OC(=O)C=C(C)C)[C@@H]24	Active	Active	Active	Active	Active	Active
COC(=O)[C@@]12OC[C@]34[C@H]([C@@H](O)[C@@H]1O)[C@@]1(C)CC(=O)C(OC(=O)[C@@H](C)N)=C(C)[C@@H]1C[C@H]3OC(=O)[C@H](OC(=O)C=C(C)C)[C@@H]24	Active	Active	Active	Active	Active	Active

Compound	inhibition [1]	inhibition [2]	inhibition [3]	inhibition [4]	inhibition [5]	inhibition [6]
COC(=O)[C@@]12OC[C@]34[C@H]([C@@H](O)[C@@H]1O)[C@@]1(C)CC(=O)C(OC(=O)[C@H](C)NC(=O)[C@H](C)N)=C(C)[C@@H]1C[C@H]3OC(=O)[C@H](OC(=O)C=C(C)C)[C@@H]24	inactive	inactive	inactive	inactive	inactive	inactive
COC(=O)[C@@]12OC[C@]34[C@H]([C@@H](O)[C@@H]1O)[C@@]1(C)CC(=O)C(OC(=O)C[C@@H](N)C(F)(F)F)=C(C)[C@@H]1C[C@H]3OC(=O)[C@H](OC(=O)C=C(C)C)[C@@H]24	inactive					
COC(=O)[C@@]12OC[C@]34[C@H]([C@@H](O)[C@@H]1O)[C@@]1(C)CC(=O)C(OC(=O)C[C@@H](N)C5CC5)=C(C)[C@@H]1C[C@H]3OC(=O)[C@H](OC(=O)C=C(C)C)[C@@H]24	inactive					
COC(=O)[C@@]12OC[C@]34[C@H]([C@@H](O)[C@@H]1O)[C@@]1(C)CC(=O)C(OC(=O)C[C@@H](N)C(C)C)=C(C)[C@@H]1C[C@H]3OC(=O)[C@H](OC(=O)C=C(C)C)[C@@H]24	inactive					
COC(=O)[C@@]12OC[C@]34[C@H]([C@@H](O)[C@@H]1O)[C@@]1(C)CC(=O)C(OCC(=O)NCCC(=O)O)=C(C)[C@@H]1C[C@H]3OC(=O)[C@H](OC(=O)C=C(C)C)[C@@H]24	inactive					
COC(=O)[C@@]12OC[C@]34[C@H]([C@@H](O)[C@@H]1O)[C@@]1(C)CC(=O)C(OC(=O)[C@@H](N)C(C)C)=C(C)[C@@H]1C[C@H]3OC(=O)[C@H](OC(=O)C=C(C)C)[C@@H]24	Active					
COC(=O)[C@@]12OC[C@]34[C@H]([C@@H](O)[C@@H]1O)[C@@]1(C)CC(=O)C(OC(=O)[C@@H]5CC(F)(F)CN5)=C(C)[C@@H]1C[C@H]3OC(=O)[C@H](OC(=O)C=C(C)C)[C@@H]24	Active	Active	Active	Active	Active	Active
COC(=O)[C@@]12OC[C@]34[C@H]([C@@H](O)[C@@H]1O)[C@@]1(C)CC(=O)C(OC(=O)C[C@H](C)NC(=O)C[C@H](C)N)=C(C)[C@@H]1C[C@H]3OC(=O)[C@H](OC(=O)C=C(C)C)[C@@H]24	Active	Active	Active	Active	Active	Active
CC[C@H](C)[C@H](NC(=O)OC(C)(C)C)C(=O)OC1=C(C)[C@@H]2C[C@H]3OC(=O)[C@H](OC(=O)C=C(C)C)[C@H]4[C@]5(C(=O)OC)OC[C@]34[C@H]([C@@H](O)[C@@H]5O)[C@@]2(C)CC1=O	inactive					
COC(=O)COC1=C(C)[C@@H]2C[C@H]3OC(=O)[C@H](OC(=O)C=C(C)C)[C@H]4[C@]5(C(=O)OC)OC[C@]34[C@H]([C@@H](O)[C@@H]5O)[C@@]2(C)CC1=O	inactive					
COC(=O)[C@@]12OC[C@]34[C@H]([C@@H](O)[C@@H]1O)[C@@]1(C)CC(=O)C(OC(=O)[C@@H]5CCCN5)=C(C)[C@@H]1C[C@H]3OC(=O)[C@H](OC(=O)C=C(C)C)[C@@H]24	Active					
COC(=O)[C@@]12OC[C@]34[C@H]([C@@H](O)[C@@H]1O)[C@@]1(C)CC(=O)C(OC(=O)CN)=C(C)[C@@H]1C[C@H]3OC(=O)[C@H](OC(=O)C=C(C)C)[C@@H]24	Active					
COC(=O)[C@@]12OC[C@]34[C@H]([C@@H](O)[C@@H]1O)[C@@]1(C)CC(=O)C(OCC(=O)NC(C)(C)C)=C(C)[C@@H]1C[C@H]3OC(=O)[C@H](OC(=O)C=C(C)C)[C@@H]24	inactive					
COC(=O)[C@@]12OC[C@]34[C@H]([C@@H](O)[C@@H]1O)[C@@]1(C)CC(=O)C(OCC(=O)NC(Cc5ccccc5)C(=O)O)=C(C)[C@@H]1C[C@H]3OC(=O)[C@H](OC(=O)C=C(C)C)[C@@H]24 (some centres undefined)	inactive					
COC(=O)[C@@]12OC[C@]34[C@H]([C@@H](O)[C@@H]1O)[C@@]1(C)CC(=O)C(OC(=O)[C@@H](N)CC(C)C)=C(C)[C@@H]1C[C@H]3OC(=O)[C@H](OC(=O)C=C(C)C)[C@@H]24	Active					
COC(=O)[C@@]12OC[C@]34[C@H]([C@@H](O)[C@@H]1O)[C@@]1(C)CC(=O)C(OCC(=O)NCCC(=O)OC(C)(C)C)=C(C)[C@@H]1C[C@H]3OC(=O)[C@H](OC(=O)C=C(C)C)[C@@H]24	inactive					
COC(=O)[C@@]12OC[C@]34[C@H]([C@@H](O)[C@@H]1O)[C@@]1(C)CC(=O)C(OC(=O)[C@H](C)NC(=O)OC(C)(C)C)=C(C)[C@@H]1C[C@H]3OC(=O)[C@H](OC(=O)C=C(C)C)[C@@H]24	Active					
